The values that follow come from ChEMBL document CHEMBL1140871, “Diaryl-dithiolanes and -isothiazoles: COX-1/COX-2 and 5-LOX-inhibitory, *OH scavenging and anti-adhesive activities” (Bioorg Med Chem, 2009).

As a reminder, the IC50 is the midpoint of a concentration-inhibition curve.

The target in series [1] is T1, Prostaglandin G/H synthase 2 (Homo sapiens, UniProt P35354).
T1 sequence (P35354 whole entry): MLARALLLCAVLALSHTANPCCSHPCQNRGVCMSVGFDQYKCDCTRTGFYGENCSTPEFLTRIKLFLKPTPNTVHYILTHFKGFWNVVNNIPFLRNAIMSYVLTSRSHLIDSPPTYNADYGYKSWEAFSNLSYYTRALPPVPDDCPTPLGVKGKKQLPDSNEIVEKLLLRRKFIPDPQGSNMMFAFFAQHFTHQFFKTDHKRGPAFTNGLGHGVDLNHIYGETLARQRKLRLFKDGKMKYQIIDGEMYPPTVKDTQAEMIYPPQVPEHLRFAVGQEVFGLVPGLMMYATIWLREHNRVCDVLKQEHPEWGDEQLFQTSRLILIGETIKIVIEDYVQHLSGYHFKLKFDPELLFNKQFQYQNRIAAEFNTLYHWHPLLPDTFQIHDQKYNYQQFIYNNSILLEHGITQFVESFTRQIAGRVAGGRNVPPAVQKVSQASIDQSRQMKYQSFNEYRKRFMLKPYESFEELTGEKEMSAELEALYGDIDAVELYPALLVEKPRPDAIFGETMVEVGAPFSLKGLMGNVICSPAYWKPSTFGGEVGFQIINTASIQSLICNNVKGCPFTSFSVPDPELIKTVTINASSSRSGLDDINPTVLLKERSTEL
In words: Inhibition of COX2 in LPS-stimulated human blood.

Series [2] is described as follows: Inhibition of 5LOX in bovine polymorphonuclear leucocytes assessed as leukotriene B4 formation. The series is classed as cell-based. The following applies: Bos taurus.
Series [3] concerns the target T2, Prostaglandin G/H synthase 1 (Bos taurus, UniProt O62664).
T2 sequence (O62664 whole entry): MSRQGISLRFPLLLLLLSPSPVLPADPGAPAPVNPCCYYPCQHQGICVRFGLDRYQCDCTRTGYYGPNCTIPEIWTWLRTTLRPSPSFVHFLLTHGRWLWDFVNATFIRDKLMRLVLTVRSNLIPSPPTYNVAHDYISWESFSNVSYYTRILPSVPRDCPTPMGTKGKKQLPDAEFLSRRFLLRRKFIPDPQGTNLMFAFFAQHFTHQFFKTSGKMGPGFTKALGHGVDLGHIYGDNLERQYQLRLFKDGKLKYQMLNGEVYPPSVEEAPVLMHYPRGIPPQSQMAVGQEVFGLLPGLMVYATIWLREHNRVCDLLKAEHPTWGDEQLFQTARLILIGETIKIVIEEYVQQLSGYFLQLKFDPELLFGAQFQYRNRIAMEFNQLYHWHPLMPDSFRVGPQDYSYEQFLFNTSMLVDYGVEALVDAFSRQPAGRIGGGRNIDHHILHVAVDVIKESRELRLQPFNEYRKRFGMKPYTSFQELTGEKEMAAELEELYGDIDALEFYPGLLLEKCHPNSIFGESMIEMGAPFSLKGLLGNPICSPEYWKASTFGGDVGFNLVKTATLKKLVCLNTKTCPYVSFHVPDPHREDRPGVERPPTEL
Description: Inhibition of COX1 in bovine platelets assessed as formation of 12-hydroxyheptadecatrienoic acid by HPLC

The test system of series [4] is MONO-MAC-6. Put plainly: Inhibition of TNF-alpha-stimulated adhesion of human MM6 cells to BAEC at 40 uM by static assay relative to control. The following applies: MONO-MAC-6, read-out: INH.
For series [5], the system named is MONO-MAC-6. In words: Inhibition of TNF-alpha-stimulated adhesion of human MM6 cells to BAEC at 100 uM by static assay relative to control. In kind it is functional.
Series [6] relates to MONO-MAC-6. Put plainly: Inhibition of TNF-alpha-stimulated adhesion of human MM6 cells to BAEC at 30 uM by static assay relative to control. In kind it is functional.
The species entered for another series is Bos taurus. The following applies: 10 uM.
The nature of series [7]: Cytotoxicity against BALB/c mouse polymorphonuclear leukocytes assessed as cell viability after 6 hrs by trypan blue exclusion assay. Conditions: read-out: Activity.
Series [8] relates to Mus musculus. Put plainly: Effect on compound 48/80-induced leukocyte recruitment in BALB/c mouse peritonitis model assessed as reduction in polymorphonuclear leucocyte count in peritoneal cavity at 50 mg/kg, ip administered 1 hr before compound 48/80 challenge. In kind it is functional. Conditions: route intraperitoneal. Further details: scale not given: the % may be the effect or the level left.

Series [9] relates to Mus musculus. In words: Reduction of CD11b protein expression on neutrophils in BALB/c mouse compound 48/80-induced peritonitis model at 50 mg/kg, ip administered 1 hr before compound 48/80 challenge. In kind it is functional. Further details: scale not given: the % may be the effect or the level left. Conditions: route intraperitoneal.

SMILES strings stand for the structures. A value given as a limit tells only on which side of the number the result lay.

Description for Bos taurus: Inhibition of 5LOX in bovine polymorphonuclear leucocytes assessed as leukotriene B4 formation at 10 uM

`Cc1ccc(-c2c(-c3ccc(Cl)cc3)ssc2=S)cc1`: the IC50 in [1] is above 50 µM; in [2], 20 µM; in [3], 2000 nM.

With `Cc1ccc(-c2cc(C(F)(F)F)nn2-c2ccc(S(N)(=O)=O)cc2)cc1` [CELECOXIB], in the series on MONO-MAC-6 [4], the inhibition at 40 µM worked out at 85%.

Consider `Cc1ccc(-c2ssc(=S)c2-c2ccc(Cl)cc2)cc1`, for which the results for the IC50 in series [1], in series [2] and in series [3] were 50 µM, above 50 µM and 6 nM, respectively.

On to `Cc1ccc(-c2ssc(=S)c2-c2ccc(S(C)(=O)=O)cc2)cc1`, for which the IC50 is above 50 µM in [1], above 50 µM in series [2] and 600 nM in [3]. For the same molecule, the inhibition at 100 µM in the series with MONO-MAC-6 [5] is 26%.

As for `CC(Cc1ccc(O)c(O)c1)C(C)Cc1ccc(O)c(O)c1` (stereo not drawn) [NORDIHYDROGUAIARETIC ACID], the half-inhibitory concentration (IC50) in series [1] was above 50 µM; in series [2] it was 1 µM; in [3], 50000 nM.

For the molecule `O=C(O)Cc1ccccc1Nc1c(Cl)cccc1Cl` [DICLOFENAC], in [2], the IC50 was above 50 µM.

In the case of `COc1ccc(-c2cnsc2-c2ccc(OC)cc2)cc1`, the results for the IC50 in [1], in series [2] and in series [3] were 0.8 µM, 20 µM and 3 nM, respectively.

On to `CS(=O)(=O)c1ccc(-c2c(-c3ccccc3)ssc2=O)cc1`, for which the IC50 is above 50 µM in series [1], above 50 µM in series [2] and 8000 nM in series [3].

Consider `Cc1ccc(-c2cnsc2-c2ccc(Cl)cc2)cc1`, for which the values for the half-maximal inhibitory concentration (IC50) in series [1], in series [2] and in [3] were above 50 µM, 50 µM and 40 nM, respectively.

With `CC1(C)Cc2c(-c3ccccc3)c(-c3ccc(Cl)cc3)c(CC(=O)O)n2C1` [LICOFELONE], the IC50 stood at 0.189 µM in series [2] and 200 nM in series [3]. Also, the inhibition at 30 µM with MONO-MAC-6 [6] was 56%.

Regarding `COc1ccc(-c2ssc(=S)c2-c2ccc(OC)cc2)cc1`, the 50% inhibitory concentration (IC50) was 20 µM in series [1], 10 µM in [2] and 30 nM in series [3].

With `CS(=O)(=O)c1ccc(-c2ssc(=O)c2-c2ccccc2)cc1`, the figures for the IC50 in [1], in [2] and in series [3] were 1.1 µM, above 50 µM and 8000 nM, respectively. For the same molecule, in the series filed under Bos taurus, the inhibition was 13%.

For the molecule `CS(=O)(=O)c1ccc(-c2ssc(=S)c2-c2ccccc2)cc1`, the values for the IC50 in [1] and in series [2] were above 50 µM and 3 µM, respectively. Further, in the series with MONO-MAC-6 [5], the inhibition at 100 µM worked out at 9%.

For `COc1ccc(-c2sncc2-c2ccc(C)cc2)cc1`, the IC50 in [1] is above 50 µM; in [2], 8 µM; in [3], 10 nM.

For the molecule `Oc1ccc(-c2ssc(=S)c2-c2ccc(O)cc2)cc1`, the IC50 in [1] was above 50 µM; in [2] it was 6 µM; in series [3], 20000 nM. Also, the inhibition at 100 µM with MONO-MAC-6 [5] stood at 54%.

Regarding `CS(=O)(=O)c1ccc(-c2ssc(=S)c2-c2ccc(F)cc2)cc1`, the 50% inhibitory concentration (IC50) is above 50 µM in series [1], 20 µM in series [2] and above 50000 nM in series [3]. This molecule also registered an inhibition at 100 µM in the series on MONO-MAC-6 [5] of 85%.

Regarding `CS(=O)(=O)c1ccc(-c2sncc2-c2ccc(F)cc2)cc1`, the IC50 in [1] worked out at 9 µM; in [2] it was 10 µM; in series [3], 50000 nM.

In the case of `Clc1ccc(-c2cnsc2-c2ccc(Cl)cc2)cc1`, the half-maximal inhibitory concentration (IC50) in series [1] was found to be 4 µM; in series [3], 100 nM.

Consider `CS(=O)(=O)c1ccc(-c2c(-c3ccccc3)ssc2=S)cc1`, for which the figures for the IC50 in series [1], in [2] and in series [3] were above 50 µM, above 50 µM and 20000 nM, respectively. The same molecule returned an inhibition at 100 µM in the series with MONO-MAC-6 [5] of 38%.

For the molecule `COc1ccc(-c2cnsc2-c2ccc(Cl)cc2)cc1`, the half-inhibitory concentration (IC50) in [2] amounted to 50 µM; in series [3], 70 nM.

With `Cc1ccc(-c2sncc2-c2ccc(Cl)cc2)cc1`, the IC50 in series [2] is above 50 µM; in series [3], 200 nM.

Take `Cc1ccc(-c2ssc(=O)c2-c2ccc(Cl)cc2)cc1`: the results for the IC50 in [1], in [2] and in [3] were above 50 µM, above 50 µM and 20 nM, respectively.

Take `COc1ccc(-c2ssc(=O)c2-c2ccc(OC)cc2)cc1`: the values for the IC50 in series [1], in series [2] and in [3] were 1 µM, above 50 µM and 0.3 nM, respectively.

With `Oc1ccc(-c2cnsc2-c2ccc(O)cc2)cc1`, the half-maximal inhibitory concentration (IC50) in [1] was above 50 µM; in series [2] it was above 50 µM; in [3], 1000 nM.

As for `Cc1ccc(-c2c(-c3ccc(S(C)(=O)=O)cc3)ssc2=S)cc1`, the half-inhibitory concentration (IC50) in [1] was 9 µM; in series [2], 9 µM; in [3], 7000 nM. In addition, in the series with MONO-MAC-6 [5], the inhibition at 100 µM was 71%. In [7], the viability at 6 h stood at 94%. Further, the Activity with Mus musculus [8] worked out at 49%; in the series with Mus musculus [9], 40%.

For the molecule `Cc1ccc(-c2c(-c3ccc(Cl)cc3)ssc2=O)cc1`, the IC50 in series [1] was above 50 µM; in series [2], above 50 µM; in [3], 200 nM.

Regarding `COc1ccc(-c2sncc2-c2ccc(Cl)cc2)cc1`, the half-maximal inhibitory concentration (IC50) was above 50 µM in series [1], 20 µM in series [2] and 20 nM in series [3].
